Experiments:
[1] = tested on: rice; assay: Test B flood test rice; type: in vivo, Oryza sativa
Procedure, shortened: (§1)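 Read-out is a visual response score from 0 (no effect) to 10 (complete control), assigned by comparison with untreated controls. Treatment was applied at the 2-leaf stage, and plants stayed in the greenhouse for twelve to sixteen days before scoring.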

[2] = tested on: sugar beet; assay: Test B pre/postemergence sugar beet; type: in vivo, Beta vulgaris
Procedure, shortened: (§2)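 Response is a visual 0-to-10 score relative to untreated plants, where 0 means no effect and 10 means complete control, taken twelve to sixteen days after application. Treatments went onto soil at planting and onto foliage of 1- to 4-leaf plants, using a surfactant-containing non-phytotoxic solvent.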

[3] = tested on: pigweed; assay: Test B pre/postemergence pigweed; type: in vivo, Amaranthus retroflexus
Procedure, shortened: as §2

[4] = tested on: crabgrass; assay: Test B pre/postemergence crabgrass; type: in vivo, Digitaria sanguinalis
Procedure, shortened: as §2

[5] = tested on: soybean; assay: Test B pre/postemergence soybean; type: in vivo, Glycine max
Procedure, shortened: as §2

[6] = tested on: wild oat; assay: Test B pre/postemergence wild oat; type: in vivo, Avena fatua
Procedure, shortened: as §2

[7] = tested on: corn; assay: Test B pre/postemergence corn; type: in vivo, Zea mays
Procedure, shortened: as §2

[8] = tested on: surinam grass; assay: Test B pre/postemergence surinam grass; type: in vivo, Brachiaria decumbens
Procedure, shortened: as §2

[9] = tested on: blackgrass; assay: Test B pre/postemergence blackgrass; type: in vivo, Alopecurus myosuroides
Procedure, shortened: as §2

[10] = tested on: wheat; assay: Test B pre/postemergence wheat; type: in vivo, Triticum aestivum
Procedure, shortened: as §2

[11] = tested on: bamyardgrass; assay: Test B flood test barnyardgrass; type: in vivo, Echinochloa crus-galli
Procedure, shortened: as §1

[12] = tested on: bedstraw; assay: Test B pre/postemergence bedstraw; type: in vivo, Galium aparine; settings: Postemergence, Rate 125 g/ha; scale of 0 to 10 where 0 is no effect and 10 is complete control
Procedure, shortened: as §2

[13] = tested on: giant foxtail; assay: Test B pre/postemergence giant foxtail; type: in vivo, Setaria faberii
Procedure, shortened: as §2

[14] = tested on: purple nutsedge; assay: Test B pre/postemergence purple nutsedge; type: in vivo, Cyperus rotundus
Procedure, shortened: as §2

[15] = tested on: rape; assay: Test B pre/postemergence rape; type: in vivo, Brassica napus
Procedure, shortened: as §2

[16] = tested on: velvetleaf; assay: Test B pre/postemergence velvetleaf; type: in vivo, Abutilon theophrasti
Procedure, shortened: as §2

[17] = tested on: duck salad; assay: Test B flood test duck salad; type: in vivo, Heteranthera limosa
Procedure, shortened: as §1

[18] = tested on: cocklebur; assay: Test B pre/postemergence cocklebur; type: in vivo, Xanthium strumarium
Procedure, shortened: as §2

[19] = tested on: smallflower flatsedge; assay: Test B flood test smallflower flatsedge; type: in vivo, Cyperus difformis
Procedure, shortened: as §1

[20] = tested on: morningglory; assay: Test B pre/postemergence morningglory; type: in vivo, Ipomoea hederacea
Procedure, shortened: as §2

[21] = Rate 62 g/ha, flood test species, Pre-emergence, visual evaluation after twelve to sixteen days
[22] = Rate 125 g/ha, under heading Pre-emergence, flood test species, visual evaluation after twelve to sixteen days
[23] = Rate 250 g/ha, Pre-emergence (flood test species), scale 0 to 10, 0 is no effect, 10 is complete control
[24] = Rate 500 g/ha, Pre-emergence section of Table B, 0 to 10 scale (0 no effect, 10 complete control)
[25] = Postemergence, Rate 62 g/ha, scale 0 to 10, 0 is no effect, 10 is complete control
[26] = Postemergence, Rate 125 g/ha, scale of 0 to 10 where 0 is no effect and 10 is complete control
[27] = Preemergence, Rate 62 g/ha, scale of 0 to 10 where 0 is no effect and 10 is complete control
[28] = Preemergence, Rate 125 g/ha, scale of 0 to 10 where 0 is no effect and 10 is complete control
[29] = Preemergence, Rate 250 g/ha, scale 0 to 10 (0 no effect, 10 complete control)
[30] = Preemergence, Rate 500 g/ha, scale of 0 to 10 where 0 is no effect and 10 is complete control
[31] = Rate 500 g/ha, Postemergence, scale 0 to 10, 0 is no effect, 10 is complete control
[32] = Postemergence, Rate 250 g/ha, scale of 0 to 10, 0 is no effect, 10 is complete control

CC[C@H](C)n1c(=O)on(C(=O)N(c2ccc(F)cc2F)C(C)C)c1=O [Compound 666]
0: Plant response rating, Rice (0 to 10 scale, 0 is no effect, 10 is complete control) [1, 21] | Rice plant response rating (0 to 10 scale, 0 is no effect, 10 is complete control) [1, 22] | Rice plant response rating [1, 23] | Rice plant response rating [1, 24] | Plant response rating, Sugarbeets [2, 25] | Sugarbeets plant response rating [2, 26] | Sugarbeets plant response rating [2, 27] | Plant response rating, Redroot pigweed [3, 25] | Soybean plant response rating [5, 27] | Soybean plant response rating [5, 28] | Plant response rating, Wild oats [6, 25] | Wild oats plant response rating [6, 26] | Plant response rating, Corn [7, 25] | Corn plant response rating [7, 26] | Corn plant response rating [7, 32] | Corn plant response rating [7, 27] | Corn plant response rating [7, 31] | Plant response rating, B. signalgrass [8, 25] | Plant response rating, Wheat [10, 25] | Wheat plant response rating [10, 26] | Wheat plant response rating [10, 27] | Plant response rating, Barnyardgrass (0 to 10 scale, 0 is no effect, 10 is complete control) [11, 21] | Barnyardgrass plant response rating (0 to 10 scale, 0 is no effect, 10 is complete control) [11, 22] | Barnyardgrass plant response rating [11, 23] | Bedstraw plant response rating [12] | Plant response rating, Nutsedge [14, 25] | Nutsedge plant response rating [14, 26] | Nutsedge plant response rating [14, 27] | Plant response rating, Nutsedge [14, 29] | Nutsedge plant response rating [14, 31] | Plant response rating, Rape [15, 25] | Rape plant response rating [15, 26] | Rape plant response rating [15, 27] | Plant response rating, Velvetleaf [16, 25] | Plant response rating, Ducksalad (0 to 10 scale, 0 is no effect, 10 is complete control) [17, 21] | Ducksalad plant response rating (0 to 10 scale, 0 is no effect, 10 is complete control) [17, 22] | Ducksalad plant response rating [17, 23] | Ducksalad plant response rating [17, 24] | Plant response rating, Cocklebur [18, 25] | Cocklebur plant response rating [18, 27] | Cocklebur plant response rating [18, 28] | Plant response rating, Cocklebur [18, 29] | Plant response rating, Cocklebur [18, 30] | Plant response rating, S. Flatsedge (0 to 10 scale, 0 is no effect, 10 is complete control) [19, 21] | S. Flatsedge plant response rating (0 to 10 scale, 0 is no effect, 10 is complete control) [19, 22] | S. Flatsedge plant response rating [19, 23] | S. Flatsedge plant response rating [19, 24] | Plant response rating, Morningglory [20, 25] | Morningglory plant response rating [20, 27] | Morningglory plant response rating [20, 28] | Plant response rating, Morningglory [20, 29]
8: Plant response rating, Sugarbeets [2, 30] | Redroot pigweed plant response rating [3, 27] | Crabgrass plant response rating [4, 28] | Plant response rating, Corn [7, 29] | Plant response rating, B. signalgrass [8, 30] | Blackgrass plant response rating [9, 26] | Blackgrass plant response rating [9, 32] | Blackgrass plant response rating [9, 28] | Blackgrass plant response rating [9, 31] | Giant foxtail plant response rating [13, 26] | Giant foxtail plant response rating [13, 32] | Rape plant response rating [15, 28] | Plant response rating, Velvetleaf [16, 30]
3: Plant response rating, Crabgrass [4, 25] | Plant response rating, Soybean [5, 29] | Wild oats plant response rating [6, 31] | B. signalgrass plant response rating [8, 28] | Wheat plant response rating [10, 28] | Wheat plant response rating [10, 31] | Plant response rating, Morningglory [20, 30]
1: Redroot pigweed plant response rating [3, 26] | Cocklebur plant response rating [18, 26] | Morningglory plant response rating [20, 26]
10: Redroot pigweed plant response rating [3, 28] | Plant response rating, Redroot pigweed [3, 29] | Plant response rating, Redroot pigweed [3, 30] | Plant response rating, Crabgrass [4, 30] | Plant response rating, Corn [7, 30] | Plant response rating, Blackgrass [9, 30] | Giant foxtail plant response rating [13, 28] | Plant response rating, Giant foxtail [13, 29] | Plant response rating, Giant foxtail [13, 30] | Plant response rating, Rape [15, 29] | Plant response rating, Rape [15, 30]
7: Plant response rating, Sugarbeets [2, 29] | Crabgrass plant response rating [4, 27] | Plant response rating, B. signalgrass [8, 29] | B. signalgrass plant response rating [8, 31] | Plant response rating, Wheat [10, 30] | Plant response rating, Velvetleaf [16, 29] | Cocklebur plant response rating [18, 31] | Morningglory plant response rating [20, 32] | Morningglory plant response rating [20, 31]
6: Redroot pigweed plant response rating [3, 31] | Wild oats plant response rating [6, 28] | Plant response rating, Blackgrass [9, 25] | Blackgrass plant response rating [9, 27] | Velvetleaf plant response rating [16, 28] | Velvetleaf plant response rating [16, 31]
2: B. signalgrass plant response rating [8, 27] | Plant response rating, Giant foxtail [13, 25] | Velvetleaf plant response rating [16, 26]
5: Wild oats plant response rating [6, 27] | B. signalgrass plant response rating [8, 32] | Barnyardgrass plant response rating [11, 24] | Velvetleaf plant response rating [16, 27]
9: Crabgrass plant response rating [4, 26] | Crabgrass plant response rating [4, 32] | Plant response rating, Crabgrass [4, 29] | Crabgrass plant response rating [4, 31] | Plant response rating, Wild oats [6, 29] | Plant response rating, Wild oats [6, 30] | Plant response rating, Blackgrass [9, 29] | Giant foxtail plant response rating [13, 27] | Giant foxtail plant response rating [13, 31]
4: Sugarbeets plant response rating [2, 28] | Sugarbeets plant response rating [2, 31] | Plant response rating, Soybean [5, 25] | Soybean plant response rating [5, 26] | Plant response rating, Soybean [5, 30] | Corn plant response rating [7, 28] | Plant response rating, B. signalgrass [8, 26] | Plant response rating, Wheat [10, 29] | Rape plant response rating [15, 31] | Cocklebur plant response rating [18, 32]
